Reference: ChEMBL document CHEMBL1201862, “PubChem BioAssay data set” (2004)
Activity calls are given as the source filed them.

Legend:
[1] = molecular target: T1, Mannose-6-phosphate isomerase (Homo sapiens, UniProt P34949); assay: MPI enzyme activity inhibition – biochemical, fluorescence intensity, coupled assay, primary screen (AID 1209)
T1 sequence (P34949 whole entry): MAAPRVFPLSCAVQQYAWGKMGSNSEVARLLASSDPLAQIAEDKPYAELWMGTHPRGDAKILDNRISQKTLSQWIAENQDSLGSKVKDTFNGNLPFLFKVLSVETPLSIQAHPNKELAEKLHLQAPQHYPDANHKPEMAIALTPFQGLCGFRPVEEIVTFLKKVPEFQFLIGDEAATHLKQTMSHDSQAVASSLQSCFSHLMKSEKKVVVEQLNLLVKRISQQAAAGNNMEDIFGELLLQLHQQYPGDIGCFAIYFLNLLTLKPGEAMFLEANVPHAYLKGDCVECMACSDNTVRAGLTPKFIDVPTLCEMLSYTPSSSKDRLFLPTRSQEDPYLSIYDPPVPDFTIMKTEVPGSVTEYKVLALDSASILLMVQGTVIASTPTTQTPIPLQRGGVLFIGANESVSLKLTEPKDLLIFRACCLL

[2] = Luminescence Cell-Based Dose Response HTS to Identify Inhibitors of 5'UTR Stem-Loop Driven Prion Protein mRNA Translation in H4 Neuroglioblastoma Cells. [Related pubchem assays: 1827 (Project Summary), 1813 (Primary HTS)]; assay type: functional
[3] = tested on: HT-1080; assay: HT1080 cell viability loss – fluorescence readout (AID 620); assay type: functional, cell-based; conditions: Homo sapiens
[4] = MIN6 cell viability loss – mouse insulinoma, cytotoxicity control, dose response (AID 2122); assay type: functional;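 further: confirmatory high-throughput counterscreen run to flag cytotoxic compounds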
[5] = molecular target: Galanin receptor type 2 (Homo sapiens, UniProt O43603); assay: Dose Response cell-based high-throughput screening assay to identify antagonists of galanin receptor 2 (GALR2). [Related pubchem assays: 828, 866 ]; assay type: functional
[6] = alpha-synuclein stem-loop luciferase translation blockers – H4 neuroglioma cells, luminescence, confirmation (AID 1988); assay type: functional, cell-based
[7] = molecular target: T2, Neuropeptide Y receptor type 2 (Homo sapiens, UniProt P49146); assay: IC50 for human NPY-Y2 blockade – cell-based, counter-screen for NPY-Y1 antagonist project, dose response (AID 1278); assay type: functional
T2 sequence (P49146 whole entry): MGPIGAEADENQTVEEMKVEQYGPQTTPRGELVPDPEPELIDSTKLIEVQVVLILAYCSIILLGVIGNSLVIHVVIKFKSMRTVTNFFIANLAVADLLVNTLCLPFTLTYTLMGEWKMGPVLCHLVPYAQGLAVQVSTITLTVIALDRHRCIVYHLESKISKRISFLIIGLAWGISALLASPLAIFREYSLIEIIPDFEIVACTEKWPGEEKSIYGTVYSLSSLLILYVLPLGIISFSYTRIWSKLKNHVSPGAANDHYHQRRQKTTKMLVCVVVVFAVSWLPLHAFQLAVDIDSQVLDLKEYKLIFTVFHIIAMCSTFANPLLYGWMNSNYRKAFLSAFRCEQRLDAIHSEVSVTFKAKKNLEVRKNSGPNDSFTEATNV

[8] = molecular target: T3, Neuropeptide Y receptor type 1 (Homo sapiens, UniProt P25929); assay: IC50 of human NPY-Y1 blockers – cell-based, dose response (AID 1277); assay type: functional
T3 sequence (P25929 whole entry): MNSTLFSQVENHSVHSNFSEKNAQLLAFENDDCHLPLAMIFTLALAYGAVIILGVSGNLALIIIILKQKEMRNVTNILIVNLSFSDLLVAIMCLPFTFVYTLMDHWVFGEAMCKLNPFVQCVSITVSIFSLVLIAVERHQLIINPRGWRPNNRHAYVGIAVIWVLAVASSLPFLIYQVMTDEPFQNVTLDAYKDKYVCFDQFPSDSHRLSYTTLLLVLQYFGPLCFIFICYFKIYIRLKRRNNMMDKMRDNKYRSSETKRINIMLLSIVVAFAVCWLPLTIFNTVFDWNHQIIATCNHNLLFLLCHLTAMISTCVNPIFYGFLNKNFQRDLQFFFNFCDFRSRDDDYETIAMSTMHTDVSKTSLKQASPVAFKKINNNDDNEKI

[9] = luciferase reporter signal suppression in cells – H4 neuroglioma cells, luminescence, dose response (AID 1990); assay type: functional, cell-based
[10] = decrease of insulin promoter-GFP reporter – imaging, high-content screening, mouse beta cells (AID 1628); assay type: functional; conditions: MIN6
[11] = molecular target: Luciferin 4-monooxygenase (Photinus pyralis, UniProt P08659); assay: Counter Screen for Luciferase-based Assay Positives. [Related pubchem assays: 620, 618, 411 ]
[12] = molecular target: Photoreceptor-specific nuclear receptor (Homo sapiens, UniProt Q9Y5X4); assay type: functional, cell-based;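 further: CHO-S cells with Gal4-NCOR and VP16-NR2E3 two-hybrid luciferase reporter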
[13] = molecular target: NADPH oxidase 1 (Homo sapiens, UniProt Q9Y5S8); assay type: functional, cell-based;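 further: Cell-based assay with luminescence read-out, IC50 derived from inhibitor dose-response curves; intracellular ROS from endogenous NOX1 in intact HT29 colon cancer cells; potency of inhibitors that lower the ROS luminescence signal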
Chain of NADPH oxidase 1 (Q9Y5S8 whole entry): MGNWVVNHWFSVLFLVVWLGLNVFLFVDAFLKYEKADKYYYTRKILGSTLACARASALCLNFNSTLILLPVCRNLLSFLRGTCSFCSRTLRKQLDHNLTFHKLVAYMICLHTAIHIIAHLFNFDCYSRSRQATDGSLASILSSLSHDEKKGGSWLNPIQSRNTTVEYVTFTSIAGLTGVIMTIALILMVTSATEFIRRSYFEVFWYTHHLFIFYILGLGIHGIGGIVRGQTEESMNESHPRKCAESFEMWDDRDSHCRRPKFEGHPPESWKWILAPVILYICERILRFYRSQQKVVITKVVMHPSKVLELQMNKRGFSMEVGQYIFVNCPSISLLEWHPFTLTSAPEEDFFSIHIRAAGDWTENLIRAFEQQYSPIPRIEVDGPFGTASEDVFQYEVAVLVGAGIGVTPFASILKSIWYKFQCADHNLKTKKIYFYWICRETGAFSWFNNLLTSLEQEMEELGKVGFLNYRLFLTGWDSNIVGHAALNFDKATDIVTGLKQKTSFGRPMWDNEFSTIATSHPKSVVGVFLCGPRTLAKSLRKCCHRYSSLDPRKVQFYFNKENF

[14] = molecular target: Bcl-2-like protein 10 (Homo sapiens, UniProt Q9HD36); assay: Concentration-response of Bcl-B inhibitors by biochemical FP with TR3 (AID 1243); assay type: functional
[15] = A Cell Based Secondary Assay To Explore Cytotoxicity of Compounds that Sensitize Mycobacterium Tuberculosis to Beta-Lactam Antibiotics.; assay type: functional
[16] = molecular target: T4, Estrogen receptor (Homo sapiens, UniProt P03372);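 further: potency for inhibiting coactivator peptide recruitment to the receptor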
T4 sequence (P03372 whole entry): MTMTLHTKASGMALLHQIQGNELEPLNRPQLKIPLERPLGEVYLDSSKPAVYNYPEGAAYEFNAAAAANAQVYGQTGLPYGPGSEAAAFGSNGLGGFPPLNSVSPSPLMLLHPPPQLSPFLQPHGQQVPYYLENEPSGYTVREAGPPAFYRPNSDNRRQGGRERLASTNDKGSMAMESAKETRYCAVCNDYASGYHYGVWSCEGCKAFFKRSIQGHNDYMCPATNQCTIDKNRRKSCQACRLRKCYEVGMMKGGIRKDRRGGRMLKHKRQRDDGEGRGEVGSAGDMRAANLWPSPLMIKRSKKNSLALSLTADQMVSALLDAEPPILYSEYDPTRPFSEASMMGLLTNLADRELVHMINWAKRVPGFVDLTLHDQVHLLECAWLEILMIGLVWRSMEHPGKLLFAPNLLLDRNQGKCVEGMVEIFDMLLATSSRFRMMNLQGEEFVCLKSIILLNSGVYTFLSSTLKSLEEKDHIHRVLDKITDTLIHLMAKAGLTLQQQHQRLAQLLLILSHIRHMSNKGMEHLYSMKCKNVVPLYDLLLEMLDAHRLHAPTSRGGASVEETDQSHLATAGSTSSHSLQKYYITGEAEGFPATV

[17] = molecular target: T5, Protein skinhead-1 (Caenorhabditis elegans, UniProt P34707); assay type: functional
T5 sequence (P34707 whole entry): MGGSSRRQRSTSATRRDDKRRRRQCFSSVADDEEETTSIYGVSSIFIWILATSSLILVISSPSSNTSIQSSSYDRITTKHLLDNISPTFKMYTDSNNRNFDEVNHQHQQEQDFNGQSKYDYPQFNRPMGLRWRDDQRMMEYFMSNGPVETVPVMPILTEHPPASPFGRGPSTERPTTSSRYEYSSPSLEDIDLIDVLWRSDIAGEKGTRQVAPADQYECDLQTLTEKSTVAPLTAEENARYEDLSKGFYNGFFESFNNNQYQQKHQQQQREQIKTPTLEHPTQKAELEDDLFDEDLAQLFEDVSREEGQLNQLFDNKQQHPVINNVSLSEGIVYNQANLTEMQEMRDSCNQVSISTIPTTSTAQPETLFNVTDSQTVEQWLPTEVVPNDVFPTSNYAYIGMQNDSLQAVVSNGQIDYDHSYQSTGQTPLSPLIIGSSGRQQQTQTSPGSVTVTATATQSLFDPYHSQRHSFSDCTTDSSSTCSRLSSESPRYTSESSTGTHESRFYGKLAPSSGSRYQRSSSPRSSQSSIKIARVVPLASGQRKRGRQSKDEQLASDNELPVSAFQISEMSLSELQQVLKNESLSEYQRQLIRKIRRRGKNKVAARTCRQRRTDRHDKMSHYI

[18] = molecular target: T6, Estrogen receptor beta (Homo sapiens, UniProt Q92731);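 further: recombinant ER-beta bound to coactivator SRC1 peptide in presence of estradiol agonist; inhibitors block coactivator peptide binding and lower the FRET signal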
T6 sequence (Q92731 whole entry): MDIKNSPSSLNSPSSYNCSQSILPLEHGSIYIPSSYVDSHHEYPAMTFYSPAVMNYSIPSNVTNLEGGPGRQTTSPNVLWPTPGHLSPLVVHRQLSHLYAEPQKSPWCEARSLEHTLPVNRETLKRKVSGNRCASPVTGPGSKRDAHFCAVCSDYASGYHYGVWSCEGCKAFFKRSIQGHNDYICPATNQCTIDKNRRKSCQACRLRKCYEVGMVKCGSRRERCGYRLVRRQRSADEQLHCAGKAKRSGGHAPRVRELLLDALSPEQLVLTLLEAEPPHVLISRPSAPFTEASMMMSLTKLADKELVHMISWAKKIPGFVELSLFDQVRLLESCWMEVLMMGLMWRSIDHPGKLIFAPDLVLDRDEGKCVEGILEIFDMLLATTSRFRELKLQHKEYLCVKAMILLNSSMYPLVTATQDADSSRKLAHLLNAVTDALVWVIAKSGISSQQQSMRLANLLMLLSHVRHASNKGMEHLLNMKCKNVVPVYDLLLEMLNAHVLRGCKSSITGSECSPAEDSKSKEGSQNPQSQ

[19] = molecular target: T6, Estrogen receptor beta; assay: blockers of SRC-3 recruitment to ERβ – biochemical, ELISA, streptavidin-HRP readout, orthogonal assay, confirmation (AID 1060)
[20] = tested on: Streptococcus sp. 'group A'; assay: Streptococcus pyogenes SK(-)GAS viability under kanamycin – luminescence, BacTiterGlo, confirmation, counter-screen for streptokinase expression inhibitor project, dose response (AID 1900); assay type: functional, organism-based
[21] = molecular target: NS3 (Hepatitis C virus, UniProt A3EZJ3); assay: PubChem AID 2173; parameters: species or system Hepacivirus hominis
[22] = tested on: Streptococcus; assay: GAS UMAA2166 growth inhibition – luminescence, BacTiterGlo, counter-screen for streptokinase expression inhibitor project, dose response (AID 1915); assay type: functional, organism-based;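 further: potency for reduction of bacterial viability or growth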
[23] = Luminescence Cell-Based Dose Retest to Confirm Inhibitors of Cancer Stem Cells. [Related pubchem assays (depositor defined):AID2717, AID2721]; assay type: functional; conditions: Homo sapiens
[24] = molecular target: T7, Streptokinase A (Streptococcus pyogenes serotype M1, UniProt P10520); assay: viability-normalized secreted streptokinase activity reduction – plasminogen activation absorbance, OD405, dose response (AID 1914); assay type: functional, Streptococcus pyogenes M1 GAS;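 further: secreted streptokinase activity via plasminogen activation per viability signal from cell pellet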
T7 sequence (P10520 whole entry): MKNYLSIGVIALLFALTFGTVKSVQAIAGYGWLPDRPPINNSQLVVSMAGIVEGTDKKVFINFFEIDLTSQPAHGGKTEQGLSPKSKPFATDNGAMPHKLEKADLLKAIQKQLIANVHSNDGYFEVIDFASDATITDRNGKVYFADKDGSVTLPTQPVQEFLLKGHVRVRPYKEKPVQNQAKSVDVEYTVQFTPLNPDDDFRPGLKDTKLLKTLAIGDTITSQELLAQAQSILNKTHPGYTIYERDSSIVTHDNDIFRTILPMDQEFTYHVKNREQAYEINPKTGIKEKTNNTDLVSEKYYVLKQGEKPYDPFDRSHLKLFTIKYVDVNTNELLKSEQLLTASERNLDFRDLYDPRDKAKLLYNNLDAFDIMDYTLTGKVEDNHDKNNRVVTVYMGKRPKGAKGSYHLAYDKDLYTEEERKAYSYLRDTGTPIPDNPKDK

[25] = molecular target: Peroxisome proliferator-activated receptor gamma/Nuclear receptor coactivator 2 (Homo sapiens, UniProt P37231); assay type: functional;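 further: agonist potency for raising coactivator recruitment to the receptor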
Chain of Peroxisome proliferator-activated receptor gamma/Nuclear receptor coactivator 2 (P37231 whole entry): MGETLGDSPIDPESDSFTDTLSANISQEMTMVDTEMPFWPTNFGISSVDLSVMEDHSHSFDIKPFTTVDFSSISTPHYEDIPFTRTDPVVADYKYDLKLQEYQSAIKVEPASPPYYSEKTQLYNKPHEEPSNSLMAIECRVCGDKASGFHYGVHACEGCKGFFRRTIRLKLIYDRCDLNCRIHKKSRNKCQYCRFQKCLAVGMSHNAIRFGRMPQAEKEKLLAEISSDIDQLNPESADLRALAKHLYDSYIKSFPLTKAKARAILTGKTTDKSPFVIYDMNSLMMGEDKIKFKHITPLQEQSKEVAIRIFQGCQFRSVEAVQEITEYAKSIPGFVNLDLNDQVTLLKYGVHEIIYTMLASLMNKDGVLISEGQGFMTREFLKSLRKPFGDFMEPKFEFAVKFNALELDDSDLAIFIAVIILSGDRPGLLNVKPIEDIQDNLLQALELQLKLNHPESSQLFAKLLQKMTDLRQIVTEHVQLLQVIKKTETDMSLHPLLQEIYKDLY
Chain of Peroxisome proliferator-activated receptor gamma/Nuclear receptor coactivator 2 (Q15596 whole entry, further chain): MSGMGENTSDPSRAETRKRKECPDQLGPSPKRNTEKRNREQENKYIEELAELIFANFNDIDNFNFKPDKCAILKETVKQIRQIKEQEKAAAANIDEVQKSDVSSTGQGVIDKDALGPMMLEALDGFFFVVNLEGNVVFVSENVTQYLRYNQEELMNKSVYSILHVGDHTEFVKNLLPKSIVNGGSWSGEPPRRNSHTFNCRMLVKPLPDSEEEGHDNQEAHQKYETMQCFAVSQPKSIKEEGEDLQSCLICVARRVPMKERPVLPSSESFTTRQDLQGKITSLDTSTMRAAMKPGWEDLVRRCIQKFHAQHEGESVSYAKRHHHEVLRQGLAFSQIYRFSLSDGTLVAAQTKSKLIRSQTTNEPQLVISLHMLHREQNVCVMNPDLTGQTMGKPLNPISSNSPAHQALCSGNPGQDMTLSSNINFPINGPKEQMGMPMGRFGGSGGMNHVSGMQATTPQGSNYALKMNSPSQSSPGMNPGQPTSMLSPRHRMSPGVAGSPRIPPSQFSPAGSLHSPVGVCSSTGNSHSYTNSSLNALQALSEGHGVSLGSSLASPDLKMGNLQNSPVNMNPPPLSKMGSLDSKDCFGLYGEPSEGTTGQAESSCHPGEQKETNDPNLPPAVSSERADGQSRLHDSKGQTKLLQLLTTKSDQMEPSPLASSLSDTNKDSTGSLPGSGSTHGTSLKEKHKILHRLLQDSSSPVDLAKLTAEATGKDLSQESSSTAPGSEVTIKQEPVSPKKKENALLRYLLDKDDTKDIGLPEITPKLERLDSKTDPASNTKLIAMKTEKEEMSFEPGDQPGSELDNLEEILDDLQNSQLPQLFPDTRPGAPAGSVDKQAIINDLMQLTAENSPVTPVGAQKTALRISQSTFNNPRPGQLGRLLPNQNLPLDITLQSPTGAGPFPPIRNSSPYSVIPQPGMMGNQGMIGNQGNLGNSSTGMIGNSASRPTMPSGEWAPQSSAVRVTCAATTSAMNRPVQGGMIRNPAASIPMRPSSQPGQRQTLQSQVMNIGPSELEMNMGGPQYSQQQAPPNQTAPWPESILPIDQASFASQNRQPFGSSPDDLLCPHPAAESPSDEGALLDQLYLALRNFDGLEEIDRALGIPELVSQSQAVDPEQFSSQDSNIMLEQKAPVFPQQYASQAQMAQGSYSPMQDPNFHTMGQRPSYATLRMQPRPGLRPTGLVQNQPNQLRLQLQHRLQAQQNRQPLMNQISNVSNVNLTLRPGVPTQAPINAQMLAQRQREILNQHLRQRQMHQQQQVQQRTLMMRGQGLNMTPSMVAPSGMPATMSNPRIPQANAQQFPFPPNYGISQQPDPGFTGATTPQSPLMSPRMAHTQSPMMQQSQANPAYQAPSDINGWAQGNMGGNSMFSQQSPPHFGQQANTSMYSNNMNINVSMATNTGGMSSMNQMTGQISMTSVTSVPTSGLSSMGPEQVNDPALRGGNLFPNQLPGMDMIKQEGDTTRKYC

[26] = molecular target: Peroxisome proliferator-activated receptor gamma/Nuclear receptor coactivator 1 (Homo sapiens, UniProt P37231); assay type: functional;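 further: agonist potency as compounds enhance coactivator SRC-1 recruitment to PPARgamma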
[27] = molecular target: T8, Endoribonuclease toxin MazF (Escherichia coli K-12, UniProt P0AE70); assay: substrate-only fluorescence increase artefacts – biochemical, single-stranded RNase substrate, counter-screen for MazEF activator project, dose response (AID 588502); assay type: functional
T8 sequence (P0AE70 whole entry): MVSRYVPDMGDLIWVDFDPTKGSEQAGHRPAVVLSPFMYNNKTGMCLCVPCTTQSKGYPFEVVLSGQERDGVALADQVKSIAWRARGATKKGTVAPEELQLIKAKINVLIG

[28] = molecular target: T8, Endoribonuclease toxin MazF; assay: activation of MazEF endoribonuclease cleavage – biochemical, fluorescence, single-stranded RNA substrate, uHTS hits, dose response (AID 588481); assay type: functional
[29] = molecular target: Peroxisome proliferator-activated receptor gamma/Nuclear receptor coactivator 3 (Homo sapiens, UniProt P37231); assay type: functional;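 further: agonist potency for raising coactivator recruitment to the receptor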
Chain of Peroxisome proliferator-activated receptor gamma/Nuclear receptor coactivator 3 (P37231 whole entry): as the sequence (P37231 whole entry) above
Chain of Peroxisome proliferator-activated receptor gamma/Nuclear receptor coactivator 3 (Q9Y6Q9 whole entry, further chain): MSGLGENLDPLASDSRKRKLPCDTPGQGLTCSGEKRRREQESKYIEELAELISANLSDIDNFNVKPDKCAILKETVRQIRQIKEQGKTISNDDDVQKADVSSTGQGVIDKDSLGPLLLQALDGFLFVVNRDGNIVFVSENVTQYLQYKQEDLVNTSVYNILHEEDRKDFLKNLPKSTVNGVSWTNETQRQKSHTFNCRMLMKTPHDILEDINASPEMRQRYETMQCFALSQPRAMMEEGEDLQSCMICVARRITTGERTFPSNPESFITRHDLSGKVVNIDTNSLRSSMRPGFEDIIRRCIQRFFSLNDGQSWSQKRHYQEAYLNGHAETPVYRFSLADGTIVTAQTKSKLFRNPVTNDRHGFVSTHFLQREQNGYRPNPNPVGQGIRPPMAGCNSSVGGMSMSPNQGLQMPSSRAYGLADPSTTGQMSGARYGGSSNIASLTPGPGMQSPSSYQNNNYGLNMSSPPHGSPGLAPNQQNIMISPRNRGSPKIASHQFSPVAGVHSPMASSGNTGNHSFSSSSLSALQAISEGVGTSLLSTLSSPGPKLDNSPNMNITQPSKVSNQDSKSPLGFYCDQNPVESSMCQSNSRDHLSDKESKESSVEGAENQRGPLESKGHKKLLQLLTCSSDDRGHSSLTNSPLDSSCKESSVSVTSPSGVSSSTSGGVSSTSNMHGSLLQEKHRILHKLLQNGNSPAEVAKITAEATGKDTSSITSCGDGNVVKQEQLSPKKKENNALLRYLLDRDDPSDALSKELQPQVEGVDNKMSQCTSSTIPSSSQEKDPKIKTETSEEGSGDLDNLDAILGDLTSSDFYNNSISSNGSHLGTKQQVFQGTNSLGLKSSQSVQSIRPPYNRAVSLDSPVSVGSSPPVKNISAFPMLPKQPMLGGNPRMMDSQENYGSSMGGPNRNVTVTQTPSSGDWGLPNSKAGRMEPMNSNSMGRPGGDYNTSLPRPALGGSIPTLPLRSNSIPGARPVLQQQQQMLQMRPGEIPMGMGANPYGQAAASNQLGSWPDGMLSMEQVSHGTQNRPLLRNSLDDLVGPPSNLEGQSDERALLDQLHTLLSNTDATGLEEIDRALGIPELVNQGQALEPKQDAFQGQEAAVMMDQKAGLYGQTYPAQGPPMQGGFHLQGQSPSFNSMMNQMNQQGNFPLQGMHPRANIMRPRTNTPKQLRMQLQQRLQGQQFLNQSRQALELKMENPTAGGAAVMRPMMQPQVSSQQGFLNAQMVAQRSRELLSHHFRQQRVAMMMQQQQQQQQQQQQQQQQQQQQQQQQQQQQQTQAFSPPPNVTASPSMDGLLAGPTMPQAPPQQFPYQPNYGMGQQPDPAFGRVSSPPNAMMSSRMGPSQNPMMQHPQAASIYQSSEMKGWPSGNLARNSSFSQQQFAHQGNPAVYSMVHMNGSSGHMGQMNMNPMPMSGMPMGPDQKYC
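Wherever AC50 is given: cells exposed to compound for roughly 70 hours or longer before luminescence read.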

## COc1ccc(NC(=O)C2CC(=O)n3cnnc3S2)cc1 (stereo not given)
[1]
  IC50: > 50 µM (not active)

## Cc1cc(C(=O)CSc2nc3ccccc3[nH]2)c(C)n1CC1CCCO1 (stereo not given)
[2]
  EC50: 8.51 µM (active)
[3]
  EC50: > 50 µM (not active)
[4]
  IC50: 0.874 µM (active)
[5]
  IC50: > 42 µM (not active)
[6]
  EC50: 4.95 µM (active)
[7]
  IC50: > 35 µM (not active)
[8]
  IC50: > 35 µM (not active)
[9]
  EC50: 7.29 µM (inconclusive)
[10]
  IC50: 1.2 µM (active)
[11]
  EC50: > 100 µM (not active)
[12]
  IC50: 11.7 µM (inactive)

## O=C(Nc1ccc(OCc2ccccc2)cc1)Nc1ccc(N2CCCCC2)cc1
[13]
  IC50: > 17 µM (not active)

## Oc1ccc(Nc2nc(-c3ccccn3)cs2)cc1
[14]
  EC50: 3.69 µM (active)

## O=C(Nc1ccc([N+](=O)[O-])cc1)c1cc2ccccc2nc1Cl
[15]
  CC50: > 40 µM (active)

## Cc1ccc(-c2csc(NC(=O)c3ccno3)n2)cc1
[16]
  IC50: 7.19 µM (active)
[17]
  IC50: > 100 µM (inactive)
[18]
  IC50: 3.87 µM (active)
[19]
  IC50: < 0.023 µM (not active)

## CCCCCCCCCc1nc2sc3c(c2c(=O)n1NC(=O)c1ccccc1[N+](=O)[O-])CC(C)(C)OC3
[20]
  EC50: 1.73 µM (active)
[21]
  IC50: 11.2 µM (not active)
[22]
  EC50: 63.4 µM (active)
[23]
  AC50: 0.843 µM (active)
[24]
  EC50: 2.23 µM (active)

## Cn1c(/C(C#N)=C(\O)COc2ccc3ccccc3c2)nc2ccccc21
[25]
  EC50: > 79.4 µM (not active)
[23]
  AC50: < 0.16 µM (active)
[26]
  EC50: > 79.4 µM (not active)
[27]
  EC50: > 99 µM (inactive)
[28]
  EC50: > 99 µM (inactive)
[29]
  EC50: > 79.4 µM (not active)
